“And” between values parts separate entries of the source, which are not always exact repeats. Equal entries are not always repeated.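 Five compound concentrations were applied to cells in 96-well plates for 48 hours; endpoints were derived by simple linear interpolation of the resulting dose-response curve. Abbreviation: GI50, concentration required for 50% inhibition of growth.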 The source made the active and inactive calls. No stated cut-off is given here; in the data, active = GI50 up to about 1.1 µM and inactive = higher.
Assays:
Assay in all cases: NCI tumour cell line growth inhibition, 48 h
OVCAR-3 = tested on: OVCAR-3
NCI/ADR-RES = tested on: NCI/ADR-RES
SN12C = tested on: SN12C
MDA-N = tested on: MDA-N
M14 = tested on: M14
MDA-MB-435 = tested on: MDA-MB-435
KM12 = tested on: KM12
DU-145 = tested on: DU-145
T47D = tested on: T47D
Hs-578T = tested on: Hs-578T
Malme-3M = tested on: Malme-3M
MDA-MB-231 = tested on: MDA-MB-231
HL-60 = tested on: HL-60
U-251 = tested on: U-251
DMS-114 = tested on: DMS-114
UACC-62 = tested on: UACC-62
KM-20L2 = tested on: KM-20L2
NCI-H226 = tested on: NCI-H226
SF-295 = tested on: SF-295
SNB-78 = tested on: SNB-78

COC(=O)/C=C\Sc1ccn(/C=C\C(=O)OC)c(=S)n1
GI50 (OVCAR-3): 13.8 µM (inactive)
GI50 (NCI/ADR-RES): 19.6 µM (inactive)
GI50 (SN12C): 23.6 µM (inactive)
GI50 (MDA-N): 27.3 µM (inactive)
GI50 (M14): 49.9 µM (inactive)
GI50 (MDA-MB-435): 23.1 µM (inactive)
GI50 (KM12): 12.4 µM (inactive)
GI50 (DU-145): > 100 µM (inactive)
GI50 (T47D): 18.4 µM (inactive)
GI50 (Hs-578T): 25.5 µM (inactive)
GI50 (Malme-3M): 22.4 µM (inactive)
GI50 (MDA-MB-231): 26.1 µM (inactive)
GI50 (HL-60): > 100 µM (inactive)
GI50 (U-251): 19.9 µM (inactive)

COc1ccc(OC)c(/C=C/C(=O)C(C)(C)C)c1
GI50 (DMS-114): 15.2 µM (inactive)
GI50 (UACC-62): 9.55 µM (inactive)
GI50 (OVCAR-3): 23.3 µM (inactive)
GI50 (SN12C): 21 µM (inactive)
GI50 (M14): 15.7 µM (inactive)
GI50 (KM-20L2): 23.6 µM (inactive)
GI50 (NCI-H226): 17.4 µM (inactive)
GI50 (KM12): 21.1 µM (inactive)
GI50 (Malme-3M): 17.9 µM (inactive)
GI50 (SF-295): 25 µM (inactive)
GI50 (HL-60): 14.7 µM (inactive)
GI50 (U-251): 20 µM (inactive)

C/C(=N/NC(=O)c1ccncc1)C(F)(F)F
GI50 (UACC-62): > 100 µM (inactive)
GI50 (OVCAR-3): > 100 µM (inactive)
GI50 (NCI/ADR-RES): > 100 µM (inactive)
GI50 (SN12C): > 100 µM (inactive)
GI50 (M14): > 100 µM (inactive)
GI50 (NCI-H226): > 100 µM (inactive)
GI50 (MDA-MB-435): > 100 µM (inactive)
GI50 (KM12): > 100 µM (inactive)
GI50 (DU-145): > 100 µM (inactive)
GI50 (T47D): > 100 µM (inactive)
GI50 (Hs-578T): > 100 µM (inactive)
GI50 (Malme-3M): > 100 µM (inactive)
GI50 (SF-295): > 100 µM (inactive)
GI50 (HL-60): > 100 µM (inactive)
GI50 (U-251): > 100 µM (inactive)

COc1ccc(CCN(C)C2CCC(C#N)(c3ccc(OC)c(OC)c3)CC2)cc1OC (stereo not drawn)
GI50 (UACC-62): > 100 µM (inactive)
GI50 (OVCAR-3): > 100 µM (inactive)
GI50 (SN12C): > 100 µM (inactive)
GI50 (M14): > 100 µM (inactive)
GI50 (KM-20L2): 48.4 µM (inactive)
GI50 (NCI-H226): > 100 µM (inactive)
GI50 (KM12): > 100 µM (inactive)
GI50 (Malme-3M): > 100 µM (inactive)
GI50 (SF-295): > 100 µM (inactive)
GI50 (HL-60): 71 µM (inactive)
GI50 (U-251): > 100 µM (inactive)

CC(Oc1ccc(Oc2cnc3ccc(Cl)cc3n2)cc1)C(=O)O (stereo not drawn)
GI50 (UACC-62): > 100 µM (inactive) and 81.1 µM (inactive)
GI50 (OVCAR-3): > 100 µM (inactive)
GI50 (M14): > 100 µM (inactive)
GI50 (DU-145): > 88.9 µM (inactive)
GI50 (T47D): 92 µM (inactive) and 64.4 µM (inactive)
GI50 (Hs-578T): > 88.1 µM (inactive)
GI50 (Malme-3M): 79.3 µM (inactive)
GI50 (MDA-MB-231): > 100 µM (inactive)
GI50 (SF-295): 98.9 µM (inactive)
GI50 (HL-60): > 100 µM (inactive)
GI50 (U-251): > 94.6 µM (inactive)

O=C1C(Cl)N(c2ccc(Cl)cc2)C1c1c[nH]c2ccccc12 (stereo not drawn)
GI50 (DMS-114): 14.2 µM (inactive)
GI50 (UACC-62): 14.9 µM (inactive)
GI50 (OVCAR-3): 17.6 µM (inactive)
GI50 (SN12C): 17.7 µM (inactive)
GI50 (M14): 18.2 µM (inactive)
GI50 (KM-20L2): 13.2 µM (inactive)
GI50 (KM12): 27 µM (inactive)
GI50 (Malme-3M): 12.5 µM (inactive)
GI50 (SF-295): 16.4 µM (inactive)
GI50 (HL-60): 15.8 µM (inactive)
GI50 (U-251): 13 µM (inactive)

COc1ccccc1/C=C1\Sc2scc(-c3cccc([N+](=O)[O-])c3)[n+]2C1=O
GI50 (UACC-62): 8.51 µM (inactive)
GI50 (OVCAR-3): 9.75 µM (inactive)
GI50 (NCI/ADR-RES): 6.84 µM (inactive)
GI50 (SN12C): 2.88 µM (inactive)
GI50 (MDA-N): 2.87 µM (inactive)
GI50 (M14): 3.93 µM (inactive)
GI50 (NCI-H226): 12.4 µM (inactive)
GI50 (MDA-MB-435): 4.99 µM (inactive)
GI50 (KM12): 10.8 µM (inactive)
GI50 (DU-145): 13.5 µM (inactive)
GI50 (T47D): 7.23 µM (inactive)
GI50 (Hs-578T): 18.5 µM (inactive)
GI50 (Malme-3M): 3.3 µM (inactive)
GI50 (MDA-MB-231): 5.04 µM (inactive)
GI50 (SF-295): 17.5 µM (inactive)
GI50 (HL-60): 0.26 µM (active)
GI50 (U-251): 14.9 µM (inactive)

CC(C(=O)O)c1cnn(-c2ccccc2)c1-n1cccc1 (stereo not drawn)
GI50 (UACC-62): > 100 µM (inactive)
GI50 (OVCAR-3): > 63.7 µM (inactive)
GI50 (NCI/ADR-RES): > 100 µM (inactive)
GI50 (SN12C): > 100 µM (inactive)
GI50 (KM-20L2): > 100 µM (inactive)
GI50 (NCI-H226): > 100 µM (inactive)
GI50 (KM12): > 100 µM (inactive)
GI50 (Malme-3M): > 100 µM (inactive)
GI50 (SNB-78): > 100 µM (inactive)
GI50 (SF-295): > 100 µM (inactive)
GI50 (HL-60): > 100 µM (inactive)
GI50 (U-251): > 100 µM (inactive)
